Measured values taken from PMC8237038 (Acta Pharmacologica Sinica, 2021).

Columns and labels:
CYP3A [1] = biological target: T1, CYP3A (Homo sapiens, UniProt P08684); conditions: for inhibitory effects against CYP3A: microsomes
CYP3A [2] = biological target: T1, CYP3A; assay: in vitro; conditions: microsomes
CYP3A [3] = assay: in vitro; conditions: human, human liver microsomes, pH 7.4, probe testosterone (6β-hydroxylation)
[4] = Pharmacokinetic interactions between HEJG and lopinavir in rats; conditions: lopinavir in rat plasma; for AUC(0-inf) / Cmax: male, Sprague-Dawley, rat, plasma, po, 160 mg/kg
[5] = pH 7.4, Time-dependent inhibition IC50 Preincubation for 3 min
[6] = pH 7.4, Time-dependent inhibition IC50 Preincubation for 33 min
[7] = HEJG (3 g/kg, i.g.) + lopinavir (160 mg/kg, i.g.)
[8] = Water + lopinavir (160 mg/kg, i.g.), control group

T1 sequence (P08684 2-503): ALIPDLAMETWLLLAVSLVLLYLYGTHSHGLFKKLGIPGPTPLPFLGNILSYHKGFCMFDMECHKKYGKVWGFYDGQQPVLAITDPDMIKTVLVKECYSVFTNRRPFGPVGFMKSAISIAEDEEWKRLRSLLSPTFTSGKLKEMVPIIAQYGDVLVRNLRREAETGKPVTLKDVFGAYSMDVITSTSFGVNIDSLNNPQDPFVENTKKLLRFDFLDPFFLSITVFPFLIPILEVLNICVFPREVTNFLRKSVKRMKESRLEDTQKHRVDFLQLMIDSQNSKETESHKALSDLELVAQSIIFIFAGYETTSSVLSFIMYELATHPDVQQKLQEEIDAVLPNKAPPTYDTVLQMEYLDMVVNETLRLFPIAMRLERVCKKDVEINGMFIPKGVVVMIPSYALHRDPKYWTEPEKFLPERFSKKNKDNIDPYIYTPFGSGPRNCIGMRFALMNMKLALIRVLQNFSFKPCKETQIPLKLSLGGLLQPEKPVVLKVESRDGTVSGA

**Q.** With O=C(O)/C=C/c1ccc(O)c(O)c1 [Caffeic acid] as the compound, how does the “inhibitory effects against CYP3A” value (CYP3A [1]) read?
**A.** The value was “weak inhibitory effects”.

**Q.** And the IC50 (CYP3A [2]; [5])?
**A.** Its IC50 is greater than 100 µM.

**Q.** And the IC50 (CYP3A [2]; [6])?
**A.** The IC50 was greater than 100 µM.

**Q.** Which results are given for O=C(/C=C/c1ccc(O)c(O)c1)O[C@@H]1C[C@](O)(C(=O)O)C[C@@H](O)[C@H]1O [Chlorogenic acid]?
**A.** inhibitory effects against CYP3A (CYP3A [1]): weak inhibitory effects; IC50 (CYP3A [2]; [5]): > 100 µM; IC50 (CYP3A [2]; [6]): > 100 µM

**Q.** With COc1cc(O)ccc1/C=C/C(=O)c1ccc(O)cc1 [Echinatin] as the compound, how does the Ratio (CYP3A [1]; constituents, IC50 3 min / 33 min preincubation) read?
**A.** Its Ratio is 3.20.

**Q.** And the IC50 (CYP3A [3]; Time-dependent inhibition IC50 Preincubation for 3 min, constituents, HLMs, 3 min preincubation)?
**A.** Its IC50 is 25.9 ± 3.19 µM.

**Q.** And the IC50 (CYP3A [3]; Time-dependent inhibition IC50 Preincubation for 33 min, constituents, HLMs, 33 min preincubation)?
**A.** The IC50 was 8.08 ± 0.56 µM.

**Q.** For O=c1c(O)c(-c2ccc(O)cc2)oc2cc(O)cc(O)c12 [Kaempferol], which IC50 shift (CYP3A [2]; pH 7.4) is on record?
**A.** Its IC50 shift is 2.01.

**Q.** And the IC50 (CYP3A [2]; [5])?
**A.** The IC50 was 13.1 ± 1.29 µM.

**Q.** What about the IC50 (CYP3A [2]; [6]) of the same compound?
**A.** Its IC50 is 6.53 ± 0.31 µM.

**Q.** For O=c1c(O)c(-c2ccc(O)c(O)c2)oc2cc(O)cc(O)c12 [Quercetin], which IC50 (CYP3A [3]) is on record?
**A.** Its IC50 is 3.95 ± 0.31 µM.

**Q.** Which t1/2 [4, 7] does the source give for Cc1cccc(C)c1OCC(=O)N[C@@H](Cc1ccccc1)[C@@H](O)C[C@H](Cc1ccccc1)NC(=O)[C@H](C(C)C)N1CCCNC1=O [lopinavir] here?
**A.** Its t1/2 is 2.68 ± 0.45 h.

**Q.** And the AUC(0-inf) [4, 7]?
**A.** The AUC(0-inf) was 10200 ± 1570 ng·h/mL.

**Q.** What about the AUC(0-inf) [4, 8] of the same compound?
**A.** Its AUC(0-inf) is 4190 ± 131 ng·h/mL.

**Q.** What about the Cmax [4, 7] of the same compound?
**A.** The Cmax was 1860 ± 215 ng/mL.

**Q.** What about the Cmax [4, 8] of the same compound?
**A.** Its Cmax is 1280 ± 55 ng/mL.
